Here are results for 9 compounds from PubChem BioAssay (NCI).

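In this assay, cells in 96-well plates receive the compound at five concentrations for 48 hours. Endpoints are linearly interpolated between the surrounding concentrations. Here, GI50 denotes the concentration required for 50% inhibition of growth. TGI marks complete inhibition of growth.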

Some test systems named below: EKVX NSCLC; HCC-2998 colon; HL-60(TB) leukemia; MDA-MB-435; OVCAR-3 ovarian; SF-295 CNS; SK-MEL-2 melanoma; SK-MEL-5 melanoma; SW-620 colon; UO-31 renal.
Test in all cases: NCI anticancer screen, dose series, 48 h

With `CCCCCCCCCCCCCCCCCCNC(=O)[C@H]1CSC(c2ccc(OC)c(F)c2)N1` (some centres undefined), the GI50 with EKVX NSCLC was 3.93 µM; with HCC-2998 colon, 1.98 µM; in the assay on HL-60(TB) leukemia, 1.96 µM; in the assay with MDA-MB-435, 1.22 µM; in the assay with OVCAR-3 ovarian it was 7.84 µM; in the assay on SF-295 CNS it was 26 µM. The GI50 is 2.27 µM in the assay with SK-MEL-2 melanoma, 2.92 µM in the assay on SK-MEL-5 melanoma, 1.5 µM in the assay on SW-620 colon and over 32.8 µM in the assay on UO-31 renal. Moreover, the TGI in the assay on EKVX NSCLC is 17.2 µM; in the assay on HCC-2998 colon, 7.02 µM; with HL-60(TB) leukemia it was 4.65 µM; in the assay with MDA-MB-435, 2.91 µM; in the assay on OVCAR-3 ovarian, over 50.2 µM; in the assay with SF-295 CNS it was over 52.2 µM. For the same compound, the TGI was 5.48 µM in the assay with SK-MEL-2 melanoma, 10.3 µM in the assay on SK-MEL-5 melanoma, 5.71 µM in the assay on SW-620 colon and over 48.4 µM in the assay on UO-31 renal.

`CC12OC(C(=O)C13CC3)C1C(=O)c3ccccc3C(=O)C12` (centres undefined): the GI50 with EKVX NSCLC was 4.48 µM; with HCC-2998 colon it was 36.3 µM; in the assay on HL-60(TB) leukemia it was 26.8 µM; in the assay on MDA-MB-435, 41.4 µM; in the assay on SK-MEL-2 melanoma it was 47.1 µM; in the assay with UO-31 renal, 32.8 µM. For the same compound, the TGI in the assay with EKVX NSCLC was 38.4 µM; with HCC-2998 colon it was over 100 µM; with HL-60(TB) leukemia, 81.6 µM; in the assay with MDA-MB-435 it was over 100 µM; in the assay with SK-MEL-2 melanoma, over 100 µM; in the assay with UO-31 renal, over 100 µM.

For `COC(=O)Nc1nc2ccc(C(=O)c3ccc[nH]3)cc2[nH]1`, the TGI in the assay with EKVX NSCLC is over 100 µM; in the assay on HCC-2998 colon it was over 100 µM; in the assay with HL-60(TB) leukemia it was 0.927 µM; in the assay with MDA-MB-435 it was 0.359 µM; with SF-295 CNS, over 100 µM; in the assay on SK-MEL-2 melanoma, over 100 µM. In the assay with SW-620 colon, the TGI was over 100 µM.

Take `CC(=O)c1ccc(Nc2cc(-n3ccnc3)nc3ccccc23)cc1`: the GI50 with EKVX NSCLC was over 100 µM; in the assay on HCC-2998 colon, over 100 µM; in the assay with MDA-MB-435, 13.5 µM; with SF-295 CNS, 2.8 µM; in the assay with SK-MEL-2 melanoma it was over 100 µM; in the assay with SK-MEL-5 melanoma, 15.6 µM. Also, the GI50 with SW-620 colon is 49.1 µM; in the assay on UO-31 renal, 66.7 µM. The TGI in the assay with EKVX NSCLC is over 100 µM; in the assay on HCC-2998 colon, over 100 µM; in the assay on MDA-MB-435, 60.1 µM; with SF-295 CNS it was 9.53 µM; in the assay with SK-MEL-2 melanoma, over 100 µM; in the assay on SK-MEL-5 melanoma, 53 µM. For the same compound, the TGI in the assay on SW-620 colon and in the assay on UO-31 renal was over 100 µM throughout.

On to `CCOC(=O)c1cnc(SCc2ccc(Cl)c(Cl)c2)nc1N1CC1`, for which the GI50 was 3.8 µM in the assay on EKVX NSCLC; 2.07 µM in the assay on HCC-2998 colon; 1.72 µM in the assay with HL-60(TB) leukemia; 1.97 µM in the assay on MDA-MB-435; 2.63 µM with OVCAR-3 ovarian; 2.43 µM in the assay on SF-295 CNS. In addition, the GI50 in the assay on SK-MEL-2 melanoma was 3.26 µM; in the assay on SK-MEL-5 melanoma, 3.39 µM; in the assay on SW-620 colon, 1.74 µM; in the assay on UO-31 renal it was 1.87 µM. Besides, the TGI in the assay with EKVX NSCLC turned out to be 18.6 µM; with HCC-2998 colon it was 4.73 µM; in the assay on HL-60(TB) leukemia, 9.13 µM; with MDA-MB-435, 11.4 µM; in the assay with OVCAR-3 ovarian, 7 µM; in the assay on SF-295 CNS, 8.99 µM. The TGI in the assay with SK-MEL-2 melanoma came out at 11.1 µM; in the assay on SK-MEL-5 melanoma, 12.6 µM; in the assay with SW-620 colon, 13.8 µM; with UO-31 renal, 7.63 µM.

As for `COc1ccc(N(C)c2nc(C)nc3ccccc23)cc1`, the GI50 in the assay on EKVX NSCLC, with HCC-2998 colon, in the assay with HL-60(TB) leukemia, in the assay with MDA-MB-435, with OVCAR-3 ovarian and with SF-295 CNS was under 0.01 µM in each case. The GI50 in the assay on SK-MEL-5 melanoma is under 0.01 µM; in the assay on SW-620 colon, under 0.01 µM; in the assay on UO-31 renal, 0.0103 µM. Further, the TGI in the assay on EKVX NSCLC is 40.8 µM; with HCC-2998 colon it was 4.31 µM; with HL-60(TB) leukemia, under 0.01 µM; in the assay on MDA-MB-435, under 0.01 µM; in the assay with OVCAR-3 ovarian it was under 0.01 µM; with SK-MEL-5 melanoma, under 0.01 µM. In addition, the TGI was over 100 µM in the assay with SW-620 colon and 60.4 µM in the assay with UO-31 renal.

With `C[C@H]1[C@H](OC(=O)CCC(=O)O)O[C@@H]2O[C@]3(C)CC[C@H]4[C@H](C)CC[C@@H]1[C@@]24OO3`, the GI50 was 0.443 µM in the assay on EKVX NSCLC; 1.48 µM in the assay with HCC-2998 colon; 0.167 µM in the assay on HL-60(TB) leukemia; 0.335 µM in the assay on MDA-MB-435; 0.415 µM with OVCAR-3 ovarian; 0.518 µM in the assay on SF-295 CNS. In addition, the GI50 in the assay on SK-MEL-2 melanoma was 2.86 µM; with SK-MEL-5 melanoma, 0.315 µM; in the assay with SW-620 colon, 0.282 µM; with UO-31 renal it was 0.398 µM. The TGI with EKVX NSCLC is 18.3 µM; in the assay with HCC-2998 colon, 24 µM; in the assay on HL-60(TB) leukemia, 0.566 µM; with MDA-MB-435, 13.5 µM; with OVCAR-3 ovarian it was 15.2 µM; in the assay on SF-295 CNS, over 67.3 µM. The TGI with SK-MEL-2 melanoma amounted to 59.8 µM; with SK-MEL-5 melanoma, 11.3 µM; in the assay on SW-620 colon, 17.8 µM; in the assay on UO-31 renal, 7.38 µM.

Turning to `COc1cc(C(=O)O)c([N+](=O)[O-])c(OC)c1OC`, the TGI with EKVX NSCLC, in the assay with HCC-2998 colon, in the assay on MDA-MB-435, in the assay with OVCAR-3 ovarian, in the assay on SF-295 CNS and in the assay on SK-MEL-2 melanoma was over 100 µM each time. Further, the TGI with SK-MEL-5 melanoma, in the assay with SW-620 colon and in the assay with UO-31 renal was over 100 µM in each case.

Take `CCCCCCCCCCCCc1ccc(C(=O)/C=C/C(=O)O)cc1`: the GI50 in the assay on EKVX NSCLC was 4.09 µM; in the assay on HCC-2998 colon it was 5.45 µM; in the assay with HL-60(TB) leukemia, 1.56 µM; with MDA-MB-435, 3.05 µM; with OVCAR-3 ovarian, 1.91 µM; in the assay with SF-295 CNS it was 12.5 µM. In addition, the values for the GI50 in the assay on SK-MEL-5 melanoma, in the assay with SW-620 colon and with UO-31 renal were 14.5 µM, 1.43 µM and 1.63 µM, respectively. Also, the TGI with EKVX NSCLC was 17.1 µM; in the assay on HCC-2998 colon, 17.7 µM; with HL-60(TB) leukemia, 3.58 µM; in the assay with MDA-MB-435 it was 11.2 µM; with OVCAR-3 ovarian it was 3.47 µM; in the assay with SF-295 CNS, 25.5 µM. In addition, the TGI in the assay with SK-MEL-5 melanoma was found to be 28.7 µM; in the assay on SW-620 colon, 3.67 µM; with UO-31 renal, 3.01 µM.
